The record followed here is publication PMC8395244, “The Oxoglutarate Binding Site and Regulatory Mechanism Are Conserved in Ammonium Transporter Inhibitors GlnKs from Methanococcales” (International Journal of Molecular Sciences, 2021).

One assay addresses T1, MtGlnK2 (Methanothermococcus thermolithotrophicus, UniProt Z9RMX6QOV2).
T1 construct: N-terminal His-tag (pET-28a(+)), tag kept (partially visible); codon-optimised gene in E. coli BL21(DE3); circa 12 kDa monomer, trimer; site between adjacent subunits
Nature of the assay: X-ray crystal structure ([…] Å). To be noted: co-crystallised with 2 mM ATP, 2 mM 2OG, 2 mM MgCl2; pH 6.5; inter-subunit cleft. Format: binding.

The target of the next assay is T2, MjGlnK1^woT (Methanocaldococcus jannaschii, UniProt Q60381).
T2 construct: gene glnK1; untagged (stop codon before XhoI in pET-24b(+)); codon-optimised gene in E. coli BL21(DE3); circa 12 kDa monomer, trimer; 2J9D/2J9E are earlier structures of this protein (2J9E C-terminally tagged)
T2 sequence (Q60381 whole entry): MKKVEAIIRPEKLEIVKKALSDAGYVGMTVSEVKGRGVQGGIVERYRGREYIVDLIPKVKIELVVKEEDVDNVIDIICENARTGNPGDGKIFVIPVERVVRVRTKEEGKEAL
Nature of the assay: X-ray crystal structure ([…] Å). It is filed as binding. To be noted: co-crystallised with 2 mM ATP, 2 mM 2OG, 2 mM MgCl2; pH 8.5; inter-subunit cleft.

With `O=C(O)CCC(=O)C(=O)O` [2OG], the “X-ray crystal structure (1.16 Å)” value at MtGlnK2 is “MtGlnK2 and MjGlnK1^woT structures, co-crystallized with Mg-ATP and 2OG”. The “X-ray crystal structure (1.20 Å)” value at MjGlnK1^woT was “MtGlnK2 and MjGlnK1^woT structures, co-crystallized with Mg-ATP and 2OG”.

On to `Nc1ncnc2c1ncn2[C@@H]1O[C@H](COP(=O)(O)OP(=O)(O)OP(=O)(O)O)[C@@H](O)[C@H]1O` [ATP], for which, at MtGlnK2, the “X-ray crystal structure (1.16 Å)” value was “MtGlnK2 and MjGlnK1^woT structures, co-crystallized with Mg-ATP and 2OG”. Also, at MjGlnK1^woT, the “X-ray crystal structure (1.20 Å)” value was “MtGlnK2 and MjGlnK1^woT structures, co-crystallized with Mg-ATP and 2OG”.
